Where two headings read alike, the source gives them in different places.
How the values were obtained:
α7-5HT3 Q79G L141S [1] = target: T1, α7-5HT3 Q79G L141S (Homo sapiens, UniProt P36544, L141S/M226I/Q79G/T225I); assay: fluorescence membrane potential (MP) assay, HEK 293 cells; assay type: cell-based, human/mouse; settings: IPD 5HT3, value (s.e.m.)
T1 construct: expressed in transfected cells

α7-5HT3 Q79G [2] = target: T2, α7-5HT3 Q79G (Homo sapiens, UniProt P36544, M226I/Q79G/T225I); assay: whole cell voltage clamp recordings (Iss, Ipeak); assay type: cell-based, human/mouse
T2 construct: expressed in transfected cells; host or cells: HEK 293 cells (ATCC CRL-1573)
T2 sequence (P36544 with tags, fused parts or gaps Q79G/T225I/M226I): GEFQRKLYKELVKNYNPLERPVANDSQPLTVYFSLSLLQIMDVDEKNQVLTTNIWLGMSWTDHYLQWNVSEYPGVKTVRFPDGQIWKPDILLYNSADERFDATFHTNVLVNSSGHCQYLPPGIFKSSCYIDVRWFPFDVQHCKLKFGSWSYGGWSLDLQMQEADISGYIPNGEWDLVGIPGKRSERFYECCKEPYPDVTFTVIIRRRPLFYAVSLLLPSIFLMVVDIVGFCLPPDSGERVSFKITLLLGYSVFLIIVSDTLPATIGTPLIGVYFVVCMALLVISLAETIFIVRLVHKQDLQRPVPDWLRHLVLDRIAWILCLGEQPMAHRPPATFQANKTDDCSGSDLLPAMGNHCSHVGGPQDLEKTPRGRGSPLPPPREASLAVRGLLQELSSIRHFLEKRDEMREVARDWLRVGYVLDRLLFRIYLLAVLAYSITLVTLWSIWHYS

[3] = target: T3, α7-5HT3 wt chimeric receptor (Homo sapiens, UniProt P36544, M226I/T225I); assay: fluorescence membrane potential (MP) assay, HEK 293 cells; assay type: cell-based, human/mouse; settings: dose response curves, MP assay
T3 construct: expressed in transfected cells; host or cells: HEK 293 cells
T3 sequence (P36544 with tags, fused parts or gaps T225I/M226I): as the sequence (P36544 with tags, fused parts or gaps Q79G/T225I/M226I) above, with G57Q counted along it

α7-5HT3 Q79G L141S [4] = target: T1, α7-5HT3 Q79G L141S; assay: whole cell voltage clamp recordings (Iss, Ipeak); assay type: cell-based, human/mouse; settings: for EC50: α7 Q79G L141S, IPD 5HT3
α7-5HT3 Q79G Q139G [5] = target: T4, α7-5HT3 Q79G Q139G (Homo sapiens, UniProt P36544, M226I/Q139G/Q79G/T225I); assay: fluorescence membrane potential (MP) assay, HEK 293 cells; assay type: cell-based, human/mouse; settings: IPD 5HT3
T4 construct: expressed in transfected cells
T4 sequence (P36544 with tags, fused parts or gaps Q79G/Q139G/T225I/M226I): as the sequence (P36544 with tags, fused parts or gaps Q79G/T225I/M226I) above, with Q117G counted along it

α7-5HT3 Q79G Q139G [6] = target: T4, α7-5HT3 Q79G Q139G; assay: whole cell voltage clamp recordings (Iss, Ipeak); assay type: cell-based, human/mouse
α7-GlyR Q79G = target: T5, α7-GlyR Q79G (Homo sapiens, UniProt P36544, Q79G); assay: whole cell voltage clamp recordings (Iss, Ipeak); assay type: cell-based; settings: IPD GlyR
T5 construct: expressed in transfected cells; host or cells: HEK 293 cells
T5 sequence (P36544 with tags, fused parts or gaps Q79G): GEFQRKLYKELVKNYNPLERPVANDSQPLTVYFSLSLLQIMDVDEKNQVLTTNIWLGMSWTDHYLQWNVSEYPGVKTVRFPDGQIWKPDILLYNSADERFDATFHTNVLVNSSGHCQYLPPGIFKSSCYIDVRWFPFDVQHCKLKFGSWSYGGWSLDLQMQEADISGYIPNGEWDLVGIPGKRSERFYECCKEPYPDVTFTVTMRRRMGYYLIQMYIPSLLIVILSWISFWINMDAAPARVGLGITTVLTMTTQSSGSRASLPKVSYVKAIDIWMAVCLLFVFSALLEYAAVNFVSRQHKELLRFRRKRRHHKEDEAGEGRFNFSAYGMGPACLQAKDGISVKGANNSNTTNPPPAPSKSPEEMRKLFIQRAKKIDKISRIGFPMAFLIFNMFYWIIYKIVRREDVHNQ

α7-5HT3 Q79G Q139M = target: T6, α7-5HT3 Q79G Q139M (Homo sapiens, UniProt P36544, M226I/Q139M/Q79G/T225I); assay: fluorescence membrane potential (MP) assay, HEK 293 cells; assay type: cell-based, human/mouse
T6 construct: expressed in transfected cells
T6 sequence (P36544 with tags, fused parts or gaps Q79G/Q139M/T225I/M226I): as the sequence (P36544 with tags, fused parts or gaps Q79G/T225I/M226I) above, with Q117M counted along it

α7-5HT3 Q79G [7] = target: T2, α7-5HT3 Q79G; assay: as above; assay type: cell-based, human/mouse
[8] = peak current, IPD 5HT3, read-out: EC50-Ipeak
[9] = steady state current, IPD 5HT3, read-out: EC50-Iss
[10] = peak current, read-out: EC50-Ipeak
[11] = steady state current, read-out: EC50-Iss

T1 sequence (P36544 with tags, fused parts or gaps Q79G/L141S/T225I/M226I): as the sequence (P36544 with tags, fused parts or gaps Q79G/T225I/M226I) above, with L119S counted along it

Row | Compound | EC50 (α7-5HT3 Q79G L141S [1]) | EC50 (α7-5HT3 Q79G [2]; [8]) | EC50 (α7-5HT3 Q79G [2]; [9]) | activity against α7-5HT3 wt (unmodified) receptor [3] | EC50 (α7-5HT3 Q79G L141S [4]; [10]) | shift in the efficacy for α7-5HT3 Q79G L141S (α7-5HT3 Q79G L141S [4]; relative to α7-5HT3 Q79G) | EC50 (α7-5HT3 Q79G L141S [4]; [11]) | EC50 (α7-5HT3 Q79G Q139G [5]) | EC50 (α7-5HT3 Q79G Q139G [6]; [8]) | EC50 (α7-5HT3 Q79G Q139G [6]; [9]) | EC50 (α7-GlyR Q79G; [10]) | EC50 (α7-GlyR Q79G; [11]) | fold improvement in potency (EC50), α7-5HT3 Q79G Q139M relative to α7-5HT3 Q79G (α7-5HT3 Q79G Q139M; EC50MP) | EC50 (α7-5HT3 Q79G Q139M; α7 Q79G Q139M, IPD 5HT3, value (s.e.m.), read-out: EC50-MP) | selectivity for Q79G relative to other mutant receptors (α7-5HT3 Q79G [7]; FIG. 5 dose response curves) | EC50 (α7-5HT3 Q79G [7]; read-out: EC50-MP, α7 Q79G, IPD 5HT3, value (s.e.m.))
1 | CCCCc1ccc(C(=O)N[C@@H]2CN3CCC2CC3)cc1 [Compound 9S, (S)-4-butyl-N-(quinuclidin-3-yl)benzamide] | 4.1 µM | 4.3 µM | 2.3 µM | did not induce activate | 12.3 µM | only slight shift | 4 µM |  |  |  |  |  |  |  |  | 
2 | O=C(N[C@@H]1CN2CCC1CC2)c1ccc(C(F)(F)F)cc1 [Compound 22S, (S)—N-(quinuclidin-3-yl)-4-(trifluoromethyl)benzamide] |  | 2.7 µM | 0.4 µM | did not induce activate |  |  |  | 3.9 µM | 11.6 ± 3.6 µM | 2.7 ± 1 µM | 7.5 µM | 4.8 µM | 20 fold | 0.06 ± 0.04 µM | selective | 0.8 µM

Reference: US8435762B2, “Chimeric ligand-gated ion channels and methods of use thereof” (Howard Hughes Medical Institute, priority 2008, dated 2013)
